Laboratory results taken from publication PMC3361628 (European Journal of Medicinal Chemistry, 2012).

Key:
BoNT/A LC = BoNT/A LC (Clostridium botulinum, UniProt P0DPI0); type: biochemical
mice = details: mouse, in vivo; cited from earlier work
Trypanosoma rhodesiense = details: in vivo, 320 mg/kg; cited from earlier work

Sequence of BoNT/A LC (P0DPI0 2-448 limits assumed): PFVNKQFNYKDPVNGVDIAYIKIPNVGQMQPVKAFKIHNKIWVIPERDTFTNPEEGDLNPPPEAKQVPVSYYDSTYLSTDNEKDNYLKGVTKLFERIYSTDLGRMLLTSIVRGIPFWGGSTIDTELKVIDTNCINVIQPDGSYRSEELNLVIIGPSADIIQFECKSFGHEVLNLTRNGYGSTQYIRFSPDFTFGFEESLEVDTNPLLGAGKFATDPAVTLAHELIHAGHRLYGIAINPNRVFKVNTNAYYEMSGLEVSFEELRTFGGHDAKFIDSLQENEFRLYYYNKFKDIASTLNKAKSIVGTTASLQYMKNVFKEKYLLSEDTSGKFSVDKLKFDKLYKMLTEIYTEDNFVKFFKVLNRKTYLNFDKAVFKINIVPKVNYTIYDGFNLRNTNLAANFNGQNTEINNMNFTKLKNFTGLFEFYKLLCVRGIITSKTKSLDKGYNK

SMILES	decrease in inhibitory potency versus 4b (BoNT/A LC)	other results
Clc1ccc2c(NCCCCNCc3ccc(-c4ccc(-c5ccc(CNCCCCNc6ccnc7cc(Cl)ccc67)cc5)s4)cc3)ccnc2c1.O=C(O)C(F)(F)F [Compound 4c, 4,4′-[thiene-2,5-diylbis(4,1-phenylenemethyleneammoniobutane-4,1-diylimino)]bis(7-chloroquinolinium) tetra(trifluoroacetate)]	approx. 1.8 fold	–
O=C(NCCCNc1ccnc2cc(Cl)ccc12)c1cc(NC(=O)c2ccc(C(=O)Nc3cc(C(=O)NCCCNc4ccnc5cc(Cl)ccc45)cc(C4=NCCN4)c3)cc2)cc(C2=NCCN2)c1 [II, reference compound]	–	increase in inhibitory potency versus I (BoNT/A LC): approx. 15 fold
Clc1ccc2c(NCCCCCNCc3ccc(-c4ccc(-c5ccc(CNCCCCCNc6ccnc7cc(Cl)ccc67)cc5)s4)cc3)ccnc2c1.O=C(O)C(F)(F)F [Compound 4d, 4,4′-[thiene-2,5-diylbis(4,1-phenylenemethyleneammoniopentane-5,1-diylimino)]bis(7-chloroquinolinium) tetra(trifluoroacetate)]	approx. 3 fold	–
Cl.Cl.N=C(N)c1ccc(-c2ccc(-c3ccc(C(=N)N)cc3)s2)cc1 [Compound 1, 4,4′-Thiene-2,5-diyldibenzenecarboximidamide dihydrochloride]	–	toxicity to mice (mice): non-toxic; survival (Trypanosoma rhodesiense): 100%
Clc1ccc2c(NCCNCc3ccc(-c4ccc(-c5ccc(CNCCNc6ccnc7cc(Cl)ccc67)cc5)s4)cc3)ccnc2c1.O=C(O)C(F)(F)F [Compound 4a, 4,4′-[Thiene-2,5-diylbis(4,1-phenylenemethyleneammonioethane-2,1-diylimino)]bis(7-chloroquinolinium) tetra(trifluoroacetate)]	approx. 3 fold	–
